Here are results for six compounds from patent US20240209028A1, “CNP COMPOUNDS” (priority 2022, published 2024).

Structures are written as SMILES. Starred links: 1 amine or outer side, 2 acyl side, 3 side chain; linkers in the order of their positions; H or OH if unused. Positions of bridges follow the written chain, without caps; N, C: chain ends. Residues, ends and D or L forms follow the SMILES beside them. *: point of attachment. C18 diacid = O=C(O)CCCCCCCCCCCCCCCCC(=O)*; γGlu = O=C(O)[C@H](CCC(=O)[*:2])N[*:1]; AEEA = NCCOCCOCC(=O)O

For orientation: EC50 means the concentration at which the effect is half-maximal. Read a low EC50 as an effect from little substance.

The target in this assay is T1, human natriuretic peptide receptor 2 (hNPR2) (Homo sapiens, UniProt P20594).
T1 construct: expressed in transfected cells; host or cells: HEK293 (ATCC CRL-1573), clone 35, co-transfected with pGloSensor-42F
T1 sequence (P20594 23-1047): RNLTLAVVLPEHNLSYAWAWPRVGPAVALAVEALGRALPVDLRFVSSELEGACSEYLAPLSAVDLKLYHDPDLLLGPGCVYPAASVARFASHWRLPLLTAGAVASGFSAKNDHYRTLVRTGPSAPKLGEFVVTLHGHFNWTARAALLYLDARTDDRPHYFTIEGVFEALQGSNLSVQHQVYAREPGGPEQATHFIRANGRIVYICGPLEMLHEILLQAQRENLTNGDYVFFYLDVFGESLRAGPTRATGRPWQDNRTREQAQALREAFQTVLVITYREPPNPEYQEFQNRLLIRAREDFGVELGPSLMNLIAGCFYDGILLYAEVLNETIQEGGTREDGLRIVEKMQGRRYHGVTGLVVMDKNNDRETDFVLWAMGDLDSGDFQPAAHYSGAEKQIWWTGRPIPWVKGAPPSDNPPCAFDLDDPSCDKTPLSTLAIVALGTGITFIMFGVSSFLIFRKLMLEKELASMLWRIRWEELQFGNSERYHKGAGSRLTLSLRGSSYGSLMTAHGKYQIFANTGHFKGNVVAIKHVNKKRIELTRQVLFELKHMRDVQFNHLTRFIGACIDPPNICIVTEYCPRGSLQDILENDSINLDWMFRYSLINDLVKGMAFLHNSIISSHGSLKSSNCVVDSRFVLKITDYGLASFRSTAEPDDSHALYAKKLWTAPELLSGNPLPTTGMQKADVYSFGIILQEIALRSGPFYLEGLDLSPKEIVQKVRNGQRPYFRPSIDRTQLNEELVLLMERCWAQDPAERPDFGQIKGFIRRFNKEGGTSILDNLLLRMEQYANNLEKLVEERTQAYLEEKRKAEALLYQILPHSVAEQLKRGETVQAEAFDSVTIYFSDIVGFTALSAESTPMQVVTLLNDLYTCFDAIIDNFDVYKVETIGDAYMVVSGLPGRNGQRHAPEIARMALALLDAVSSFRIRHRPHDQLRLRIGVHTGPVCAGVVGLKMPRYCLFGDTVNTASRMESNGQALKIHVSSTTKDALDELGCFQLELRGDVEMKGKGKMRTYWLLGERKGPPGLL
Put plainly: In vitro hNPR2 activity assay (cGMP GloSensor reporter, HEK293). The class given is cell-based. To be noted: for EC50: 0% HSA, HEK293-hNPR2/GloSensor cells; for hNPR2 0% HSA. [EC50% rel CNP]: potency relative to CNP22 (0065). How it is done: To evaluate the in vitro activity of CNP22 (0065; Chem. 1) and CNP compounds of the invention, they were tested for their ability to induce production of cyclic guanosine monophosphate (cGMP) in reporter cells expressing the human natriuretic peptide receptor 2 (hNPR2).
Cell culture: To produce the reporter cell line, HEK293 (ATCC® CRL-1573™) cells were stably transfected with the pGloSensor-42F reporter plasmid (GloSensor cGMP reporter—luciferase, Promega) and an expression plasmid encoding the hNPR2 receptor. A single cell clone was isolated for the reporter cell line. When reporter cells are exposed to an hNPR2 activating compound, hNPR2 cause production of cGMP. […] Active GloSensor luciferase is able to convert luciferin to oxyluciferin, a process that produces bioluminescence. Upon cell lysis and supply of luciferase substrate, luciferase activity can be quantified by detection of luminescence. Therefore, addition of an hNPR2 activating compound and subsequent addition of detection reagent to reporter cells causes generation of luminescence in a dose dependent manner. […] This measure, also referred to as in vitro potency, is reported for all compounds tested. In all the in vitro activity experiments, CNP22 was used as a positive in-plate control for hNPR2 activation. To reduce inter-assay variation, we also report the potency of each compound relative to the potency of the CNP22 control on each plate.
Procedure: HEK293-hNPR2/GloSensor clone 35 cells were continuously cultured in selection medium (DMEM containing 10% FCS, 1% P/S, 200 μg/mL G418 and 100 μg/mL hygromycin). To perform the assay, cells were detached with TrypLE Express (Gibco #12604013), put through a 70 μm cell strainer, counted and seeded in 30 μL/well assay medium (DMEM without phenol red and with 1% P/S) at 10,000 cells/well in white 384-well plates (Perkin Elmer #6007680) overnight. The following day, test compounds were serial diluted in dilution medium (DMEM without phenol red containing 1% OVA (Sigma #A5505 lot 04M7001V), 0.01% Tween20 (Roche #33766700) and 1% P/S) and 10 μL/well of diluted test compounds were subsequently added to the cells. For each compound, ten different concentrations in the range 0.25 μM-10 μM were tested. After 30 min of incubation at 37° C. and 5% CO2, 40 μL/well Bright-Glo detection reagent (Promega #E2650) was added. […] To determine the in vitro potency or EC50 of each test compound, a four parameter logistic regression was done on the raw data for each test compound using the Python package SciPy optimize. The average EC50 values are listed as “hNPR2 0% HSA. [EC50 (nM)]” in Table 2. A relative potency was calculated by the following expression: EC50 (CNP22 in-plate control)/EC50 (test compound)*100, shown as “hNPR2 0% HSA. [EC50% rel CNP]” in Table 2. A minimum of two replicates was measured for each test compound.

As to `CC[C@H](C)[C@@H]1NC(=O)[C@H](CCCNC(=N)N)NC(=O)[C@H](CC(=O)O)NC(=O)[C@H](CC(C)C)NC(=O)[C@H](CCCCN)NC(=O)[C@H](CC(C)C)NC(=O)CNC(=O)[C@H](Cc2ccccc2)NC(=O)[C@@H](NC(=O)CNC(=O)[C@H](CCCCN)NC(=O)[C@H](CO)NC(=O)[C@H](CC(C)C)NC(=O)CNC(=O)[C@H](CCCCN)NC(=O)[C@H](CCC(=O)O)NC(=O)[C@H](CCC(N)=O)NC(=O)[C@H](C)NC(=O)CNC(=O)[C@H](Cc2c[nH]cn2)NC(=O)[C@H](CCC(=O)O)NC(=O)COCCOCCNC(=O)COCCOCCNC(=O)CC[C@H](NC(=O)CCCCCCCCCCCCCCCCC(=O)O)C(=O)O)CSSC[C@@H](C(=O)O)NC(=O)CNC(=O)[C@H](CC(C)C)NC(=O)CNC(=O)[C@H](CO)NC(=O)[C@H](CC(C)C)NC(=O)[C@H](CO)NC(=O)CNC1=O` [compound 1236] ({C18 diacid-γGlu-AEEA-AEEA}-EHGAQEKGLSKGCFGLKLDRIGSLSGLGC-OH; disulfide 13-29; C-terminus assumed), the EC50 amounted to 3.4 nM and the “hNPR2 0% HSA. [EC50% rel CNP]” value was determined as 6.1%. The like results for `CC[C@H](C)[C@@H]1NC(=O)[C@H](CCCNC(=N)N)NC(=O)[C@H](CC(=O)O)NC(=O)[C@H](CC(C)C)NC(=O)[C@H](CCCCN)NC(=O)[C@H](CC(C)C)NC(=O)CNC(=O)[C@H](Cc2ccccc2)NC(=O)[C@@H](NC(=O)CNC(=O)[C@H](CCCCN)NC(=O)[C@H](CO)NC(=O)[C@H](CC(C)C)NC(=O)CNC(=O)[C@H](CCCCN)NC(=O)[C@H](CCC(=O)O)NC(=O)[C@H](CCC(N)=O)NC(=O)[C@H](C)NC(=O)CNC(=O)[C@H](Cc2c[nH]cn2)NC(=O)[C@H](Cc2ccc(O)cc2)NC(=O)COCCOCCNC(=O)COCCOCCNC(=O)CC[C@H](NC(=O)CCCCCCCCCCCCCCCCC(=O)O)C(=O)O)CSSC[C@@H](C(=O)O)NC(=O)CNC(=O)[C@H](CC(C)C)NC(=O)CNC(=O)[C@H](CO)NC(=O)[C@H](CC(C)C)NC(=O)[C@H](CO)NC(=O)CNC1=O` [compound 1237] ({C18 diacid-γGlu-AEEA-AEEA}-YHGAQEKGLSKGCFGLKLDRIGSLSGLGC-OH; disulfide 13-29) were, in that order, 1.95 nM and 11.8%. For the compound `CC[C@H](C)[C@@H]1NC(=O)[C@H](CCCNC(=N)N)NC(=O)[C@H](CC(=O)O)NC(=O)[C@H](CC(C)C)NC(=O)[C@@H]2CCCN2C(=O)[C@H](CC(C)C)NC(=O)CNC(=O)[C@H](Cc2ccccc2)NC(=O)[C@@H](NC(=O)CNC(=O)[C@H](CCCCN)NC(=O)[C@H](CO)NC(=O)[C@H](CC(C)C)NC(=O)CNC(=O)[C@H](CCCCN)NC(=O)[C@H](CCC(=O)O)NC(=O)[C@H](CCC(N)=O)NC(=O)[C@H](C)NC(=O)CNC(=O)[C@H](Cc2c[nH]cn2)NC(=O)[C@H](Cc2ccc(O)cc2)NC(=O)COCCOCCNC(=O)COCCOCCNC(=O)CC[C@H](NC(=O)CCCCCCCCCCCCCCCCC(=O)O)C(=O)O)CSSC[C@@H](C(=O)O)NC(=O)CNC(=O)[C@H](CC(C)C)NC(=O)CNC(=O)[C@H](CO)NC(=O)[C@H](CC(C)C)NC(=O)[C@H](CO)NC(=O)CNC1=O` [compound 1240] ({C18 diacid-γGlu-AEEA-AEEA}-YHGAQEKGLSKGCFGLPLDRIGSLSGLGC-OH; disulfide 13-29; C-terminus assumed), the “hNPR2 0% HSA. [EC50% rel CNP]” value came to 11.2%. On the same count and under the same terms, for `CC[C@H](C)[C@@H]1NC(=O)[C@H](CCCNC(=N)N)NC(=O)[C@H](CC(=O)O)NC(=O)[C@H](CC(C)C)NC(=O)[C@@H]2CCCN2C(=O)[C@H](CC(C)C)NC(=O)CNC(=O)[C@H](Cc2ccccc2)NC(=O)[C@@H](NC(=O)CNC(=O)[C@H](CO)NC(=O)[C@H](CO)NC(=O)[C@H](CC(C)C)NC(=O)CNC(=O)[C@H](CCCCN)NC(=O)[C@H](CCC(=O)O)NC(=O)[C@H](CCC(N)=O)NC(=O)[C@H](C)NC(=O)CNC(=O)[C@H](Cc2c[nH]cn2)NC(=O)[C@H](Cc2ccc(O)cc2)NC(=O)COCCOCCNC(=O)COCCOCCNC(=O)CC[C@H](NC(=O)CCCCCCCCCCCCCCCCC(=O)O)C(=O)O)CSSC[C@@H](C(=O)O)NC(=O)CNC(=O)[C@H](CC(C)C)NC(=O)CNC(=O)[C@H](CO)NC(=O)[C@H](CC(C)C)NC(=O)[C@H](CO)NC(=O)CNC1=O` [compound 1242] ({C18 diacid-γGlu-AEEA-AEEA}-YHGAQEKGLSSGCFGLPLDRIGSLSGLGC-OH; disulfide 13-29) the value was 5.4%.

Consider `CC[C@H](C)[C@@H]1NC(=O)[C@H](CCCNC(=N)N)NC(=O)[C@H](CC(=O)O)NC(=O)[C@H](CC(C)C)NC(=O)[C@@H]2CCCN2C(=O)[C@H](CC(C)C)NC(=O)CNC(=O)[C@H](Cc2ccccc2)NC(=O)[C@@H](NC(=O)CNC(=O)[C@H](CCC(N)=O)NC(=O)[C@H](CO)NC(=O)[C@H](CC(C)C)NC(=O)CNC(=O)[C@H](CCCCN)NC(=O)[C@H](CCCCN)NC(=O)[C@H](CCC(=O)O)NC(=O)[C@H](C)NC(=O)CNC(=O)[C@H](CCC(=O)O)NC(=O)[C@H](Cc2ccc(O)cc2)NC(=O)COCCOCCNC(=O)COCCOCCNC(=O)CC[C@H](NC(=O)CCCCCCCCCCCCCCCCC(=O)O)C(=O)O)CSSC[C@@H](C(=O)O)NC(=O)CNC(=O)[C@H](CC(C)C)NC(=O)CNC(=O)[C@H](CO)NC(=O)[C@H](CC(C)C)NC(=O)[C@H](CO)NC(=O)CNC1=O` [compound 1274] ({C18 diacid-γGlu-AEEA-AEEA}-YEGAEKKGLSQGCFGLPLDRIGSLSGLGC-OH; disulfide 13-29), for which the “hNPR2 0% HSA. [EC50% rel CNP]” value was 13.2%.

In the case of `CC[C@H](C)[C@@H]1NC(=O)[C@H](CCCNC(=N)N)NC(=O)[C@H](CC(=O)O)NC(=O)[C@H](CC(C)C)NC(=O)[C@@H]2CCCN2C(=O)[C@H](CC(C)C)NC(=O)CNC(=O)[C@H](Cc2ccccc2)NC(=O)[C@@H](NC(=O)CNC(=O)[C@H](CO)NC(=O)[C@H](CO)NC(=O)[C@H](CC(C)C)NC(=O)CNC(=O)[C@H](CCCCN)NC(=O)[C@H](CCC(=O)O)NC(=O)[C@H](CCC(N)=O)NC(=O)[C@H](C)NC(=O)CNC(=O)[C@H](CCC(=O)O)NC(=O)COCCOCCNC(=O)COCCOCCNC(=O)CC[C@H](NC(=O)CCCCCCCCCCCCCCCCC(=O)O)C(=O)O)CSSC[C@@H](C(=O)O)NC(=O)CNC(=O)[C@H](CC(C)C)NC(=O)CNC(=O)[C@H](CO)NC(=O)[C@H](CC(C)C)NC(=O)[C@H](CO)NC(=O)CNC1=O` [compound 1287] ({C18 diacid-γGlu-AEEA-AEEA}-EGAQEKGLSSGCFGLPLDRIGSLSGLGC-OH; disulfide 12-28), the “hNPR2 0% HSA. [EC50% rel CNP]” value was 2.9%.
